Measured values published in the NIST ThermoML archive (doi:10.1016/j.fluid.2018.10.024).

Legend:
[1] = xn = mol fraction of the nth substance listed; settings: 101 kPa, Liquid; for viscosity: Capillary tube (Ostwald / Ubbelohde) method; for mass density: Vibrating tube method
[2] = refractive index (Na D-line) (dimensionless); xn = mol fraction of the nth substance listed; settings: 101 kPa, Liquid, Standard Abbe refractometry

ClC(Cl)Cl [trichloromethane] + CO
Settings	mass density, [1] [kg/m3]	refractive index, [2]	viscosity, [1] [mPa·s]
298.15 K, x2 = 0	1478.75	1.4422	0.5916
298.15 K, x2 = 0.0999	1443.84	1.4379	0.6213
298.15 K, x2 = 0.2012	1403.84	1.4312	0.6437
298.15 K, x2 = 0.3015	1358.87	1.4217	0.6585
298.15 K, x2 = 0.3991	1309.46	1.4115	0.6642
298.15 K, x2 = 0.502	1250.29	1.4018	0.6635
298.15 K, x2 = 0.5998	1186.04	1.3903	0.6552
298.15 K, x2 = 0.7012	1108.93	1.3789	0.6385
298.15 K, x2 = 0.7998	1020.91	1.3649	0.6182
298.15 K, x2 = 0.9001	914.54	1.3485	0.5812
303.15 K, x2 = 0	1469.16	1.4397	0.558
303.15 K, x2 = 0.0999	1434	1.4327	0.5797
303.15 K, x2 = 0.2012	1394.48	1.4257	0.5937
303.15 K, x2 = 0.3015	1350.17	1.4171	0.6053
303.15 K, x2 = 0.3991	1301.28	1.4084	0.6038
303.15 K, x2 = 0.502	1242.63	1.3979	0.6028
303.15 K, x2 = 0.5998	1178.79	1.3881	0.5919
303.15 K, x2 = 0.7012	1102.19	1.377	0.5796
303.15 K, x2 = 0.7998	1014.72	1.3633	0.5571
303.15 K, x2 = 0.9001	909	1.3467	0.533
308.15 K, x2 = 0	1460.01	1.4356	0.5333
308.15 K, x2 = 0.0999	1424.97	1.4289	0.5525
308.15 K, x2 = 0.2012	1385.67	1.4212	0.5656
308.15 K, x2 = 0.3015	1341.86	1.4116	0.5743
308.15 K, x2 = 0.3991	1293.54	1.4031	0.5766
308.15 K, x2 = 0.502	1235.37	1.3953	0.5716
308.15 K, x2 = 0.5998	1171.85	1.3856	0.5627
308.15 K, x2 = 0.7012	1095.59	1.3729	0.5487
308.15 K, x2 = 0.7998	1008.7	–	0.5267
308.15 K, x2 = 0.9001	903.73	1.3443	0.5044
313.15 K, x2 = 0	1450.39	1.4338	0.5072
313.15 K, x2 = 0.0999	1415.61	1.427	0.5241
313.15 K, x2 = 0.2012	1376.61	1.4211	0.5355
313.15 K, x2 = 0.3015	1333.14	1.4127	0.5429
313.15 K, x2 = 0.3991	1285.19	1.4049	0.5434
313.15 K, x2 = 0.502	1227.45	1.3943	0.5403
313.15 K, x2 = 0.5998	1164.4	1.3839	0.5264
313.15 K, x2 = 0.7012	1088.7	1.3722	0.5134
313.15 K, x2 = 0.7998	1002.44	1.3592	0.4924
313.15 K, x2 = 0.9001	898.23	–	0.4713
318.15 K, x2 = 0	1440.03	1.4297	0.4849
318.15 K, x2 = 0.0999	1405.51	1.4201	0.4991
318.15 K, x2 = 0.2012	1366.88	1.4174	0.5108
318.15 K, x2 = 0.3015	1323.78	1.4093	0.5144
318.15 K, x2 = 0.3991	1276.2	1.4023	0.5142
318.15 K, x2 = 0.502	1218.91	1.3927	0.5108
318.15 K, x2 = 0.5998	1156.37	1.3817	0.4976
318.15 K, x2 = 0.7012	1081.29	1.3719	0.483
318.15 K, x2 = 0.7998	995.73	1.3576	0.4655
318.15 K, x2 = 0.9001	892.36	1.3406	0.4426
